Experimental data reported in patent publication US20250275953A1, “VODOBATINIB FOR REDUCING PROGRESSION OF PARKINSON'S DISEASE” (Sun Pharma Advanced Research Company Ltd., priority 2022, published 2025).

Test: CSF concentration, Parkinson's disease patients, open label part, Day 14
Format: in vivo, human
Settings: for mean CSF level: 2-3 h post dose, Day 14, PD patients; for Concentration in CSF Mean (SD): Day 14, 2-3 h post dose, PD patients open label; for Concentration in CSF Geo. Mean / Concentration in CSF Median: Day 14, PD patients open label
Experimental: A single CSF sample was collected at either 2 h or 3 h following the dose on Day 14.
Study NCT02970019 was a multi-center safety and tolerability study of vodobatinib in 60 subjects with Parkinson's Disease (diagnosed with PD according to the Brain Bank criteria of the United Kingdom Parkinson's Disease Society) who were randomized to receive placebo or various daily doses of vodobatinib for 14 days in a parallel assignment design with quadruple masking (participant, care provider, investigator, and outcomes assessor.) In study NCT02970019, consecutive cohorts of up to eight subjects received once-daily doses of 6, 12, 18, 24, 48, 96, 192, or 384 mg of study drug for 14 days, with six subjects in each cohort on vodobatinib and two subjects in each cohort on placebo. An alternating panel design was used such that subjects in the 6 and 18 mg cohorts were the same, and subjects in the 12 and 24 mg cohorts were the same, thus yielding 48 total individuals enrolled in the eight cohorts. There was a wash-out period of 14 days between each were studied in sequential ascending dose cohorts. In parallel to the double-blind cohorts, up to four subjects per dose cohort were enrolled in an open-label study of vodobatinib to receive 24, 48 or 96 mg once-daily doses of for 14 days. These subjects underwent lumbar puncture to collect CSF on Day 1, and 2-3 h after the last morning dose on Day 14. PK blood draws (for both double-blind and open label) were collected at pre-dose (˜30 min) and at 0.5, 1, 2, 4, 8, 12 and 24 h post-dose on Days 1 and 14.
Vodobatinib levels in plasma and CSF were determined using a fully validated LC-MS/MS assay with lower limits of quantitation (LLOQ) of 2.5 ng/mL and 0.05 ng/mL, respectively. PK analyses were performed using standard non-compartmental analysis with Phoenix® WinNonlin® software Version 6.4 to estimate the PK parameters Cmax, Tmax, AUCtau and Css. Descriptive statistics were used to characterize vodobatinib concentrations and PK parameters in plasma and CSF. Statistical calculations were performed with SAS software (Version 9.4, SAS Institute, Cary, North Carolina, USA).

SMILES: Cc1ccc(C(=O)NNC(=O)c2c(C)cccc2Cl)cc1C#Cc1cnc2ccccc2c1 [N′-(2-chloro-6-methylbenzoyl)-4-methyl-3-[2-(3-quinolyl)ethynyl]-benzohydrazide]
- mean CSF level (24 mg): 1.5 nM
- Concentration in CSF Mean (SD) (24 mg): 0.6550 (0.2447) ng/mL
- Concentration in CSF Mean (SD) (24 mg, listed as vodobatinib): 0.66 ng/mL
- Concentration in CSF Geo. Mean (24 mg): 0.6317 ng/mL
- Concentration in CSF Median (24 mg): 0.6550 ng/mL
- mean CSF level (48 mg): 1.5 nM
- Concentration in CSF Mean (SD) (48 mg): 0.6683 (0.744) ng/mL
- Concentration in CSF Mean (SD) (48 mg, listed as vodobatinib): 0.67 ng/mL
- Concentration in CSF Geo. Mean (48 mg): 0.8868 ng/mL
- Concentration in CSF Median (48 mg): 0.5350 ng/mL
- mean CSF level (96 mg): 2.4 nM
- Concentration in CSF Mean (SD) (96 mg): 1.1193 (0.4533) ng/mL
- Concentration in CSF Mean (SD) (96 mg, listed as vodobatinib): 1.1 ng/mL
- Concentration in CSF Geo. Mean (96 mg): 1.0482 ng/mL
- Concentration in CSF Median (96 mg): 1.0850 ng/mL
